Experimental data from US20240247029A1, “INTERLEUKIN-1 RECEPTOR MODULATORS AND USES THEREOF” (VALORISATION HSJ, LIMITED PARTNERSHIP, priority 2020, published 2024).

Tests used:
[1] = system: IL-1β-induced NF-κB signaling in HEK-Blue IL-33/IL-1β cells; test: NF-κB QUANTI-Blue assay; assay type: cell-based; details: peptide 10^−6 M, 30 min pretreatment, IL-1β 100 ng/ml
Protocol: FIG. 3 is a graph showing the effects of peptides 1 and 2 on IL-1β-induced NF-κB signaling in HEK-Blue cells as quantified in the QUANTI-blue assay. After pre-incubation with peptide or vehicle, HEK-Blue cells were stimulated with IL-1β for 24 h, and secreted alkaline phosphatase activity was spectroscopically detected as a reporter product from the transcription of the NF-κB gene. Data shown represents the average of 2 experiments (each with n=4 per treatment group): ****p<0.0001 compared to group treated only with IL-1β.
HEK-Blue IL-33/IL-1β cells (InvivoGen) were respectively pretreated with peptides 1 and 2 (10^−6 M), or Kineret (1.0 mg/mL) for 30 min, followed by treatment with a constant concentration of […] (100 ng/ml), and incubation at 37° C. for 4 h. Levels of secreted alkaline phosphatase in cell culture supernatant were determined using the QUANTI-Blue assay, according to the manufacturer's instructions (InvivoGen). Alkaline phosphatase activity was assessed by measuring the optical density (OD) at 620-655 nm with an EnVision Multilabel micro plate reader (PerkinElmer, Waltham, MA). Data are representative of 3 experiments (each with n=4 per treatment group).

timed-pregnant CD-1 mice = test: LPS-induced preterm birth model in mice; assay type: in vivo, mouse; details: 2 mg/kg/day subcutaneous, LPS 10 μg intraperitoneal on G16.5; delivery before G18.5; LPS alone ˜80%
Protocol: FIG. 6 is a graph showing the effects of peptides 1 and 2 on prevention of PTB. In brief, pregnant dams on day 16.5 of gestation (G16.5) were subcutaneously pretreated with peptides 1 and 2 (2 mg/kg/day subcutaneous injections) or vehicle, followed by LPS (10 μg intraperitoneal injection), and observed for delivery of pups. A dam was considered as delivering preterm if at least one pup was delivered before G18.5. n=4-5 dams per treatment group.
Timed-pregnant CD-1 mice at 16.5 days of gestation (G16.5) were anesthetized with 2% isoflurane and received an intraperitoneal injection of lipopolysaccharide (LPS, n=4 per group, a single dose of 10 ug) (Nadeau-Vallée et al., 2015; Kakinuma et al., 1997). A dosage of 2 mg/kg/day of peptides 1 and 2 or vehicle was respectively injected subcutaneously in the neck, every 12h until delivery. On G16.5, a dose of 1 mg/kg was injected 30 min before stimulation with LPS (to allow distribution of drugs to target tissues) and 1 mg/kg was injected 12h after stimulation (n=4 each treatment). Mice delivery was assessed every hour until term (G19-G19.5). A mouse was considered as delivering prematurely if the first pup was delivered earlier than G18.5. Data was analyzed using Prism 7 (GraphPad Software, San Diego, CA, USA) with one-way ANOVA and Dunnett's test for multiple comparisons. Outliers were detected using Grubb's test. Results were treated as significant when p was <0.05 and expressed as mean+SEM.
From the results of the in vitro screens, a subset of six (3R,4S)-β-substituted-Agl^3 peptides (e.g., 2c, 2d, 2f, 2l, 2n, 2q) were selected for examination in vivo in a CD-1 mouse model of preterm birth (PTB), and a Sprague Dawley rat model of oxygen-induced retinopathy (OIR). In the PTB model, timed-pregnant CD-1 dams were pre-treated with peptides 1 or 2, or PBS vehicle, and then injected with LPS on day 16.5 of gestation (G16.5). A bacterial cell wall component that contains PAMPs, LPS is known to reliably induce labor via pro-inflammatory pathways implicating IL-1 (Hirsch and Wang 2005). The CD-1 mice have a gestation of 19.2 days (Goupil et al. 2010). Dams that delivered at least one pup before G18.5 were considered to have given birth prematurely. In the absence of peptide, LPS alone induced premature labor in ˜80% of treated mice (FIG. 6). Peptide 1 and triazoles 2 l and 2q, all reduced the PTB rate to ˜20%.

[2] = Quiniou et al. 2008; cited from earlier work
Sprague Dawley rat pups = test: Oxygen-induced retinopathy (OIR) model; assay type: in vivo; details: 2 mg/kg/day intraperitoneal twice daily, 80% oxygen P5 to P10
From the text: Experiments in the oxygen-induced retinopathy rodent model were preformed according to the method described previously (Geranurimi et al. 2019), and summarized below.
Animals. Two-day-old (P2) Sprague Dawley rat pups and their mothers were ordered from Charles River (Raleigh, SC, USA) and acclimatized for 3 days in standard conditions. All procedures and protocols involving the use of the rats were approved by the Animal Care Committee of the research center of Hopital Maisonneuve-Rosemont and are in accordance with the Statement for the Use of Animals in Ophthalmic and Vision Research approved by the Association for Research in Vision and Ophthalmology, and guidelines established by the Canadian Council on Animal Care.
Oxygen-Induced Retinopathy in Sprague Dawley Rats. The 80% oxygen model of retinopathy was conducted as previously described (Geranurimi et al. 2019). Briefly, litters of P5 pups and their mothers were kept in a controlled 80% oxygen environment until P10. The pups were respectively injected intraperitoneally twice daily with PBS vehicle (20 μL per injection), peptide 1 or derivatives 2 (titrated to a daily dose of 2 mg/kg/day). Control litters were kept under normal air atmosphere and standard conditions. On P10, pups were euthanized by decapitation under 2% isoflurane anesthesia. Eyes were enucleated and fixed in 4% paraformaldehyde, then stored at 4° C. in phosphate-buffered saline (PBS) until further processing.
Retinal Flatmount and Immunohistochemistry. The fixed eyes were dissected, and the obtained retinas were incubated with antibodies and mounted onto slides as previously described in (Geranurimi et al. 2019). Briefly, the cornea and lens were removed from the eyes, and the retina gently removed from the underlying sclera-choroid-retinal pigmented epithelium (RPE) complex. Retinas were treated for 1h with blocking solution [1% bovine serum albumin (BSA), 1% normal goat serum, 0.1% Triton X-100 and 0.05% Tween-20 in PBS], and then incubated overnight with lectin and Iba-1 primary antibody, followed by Alexa-594-conjugated secondary antibody for 2 h. Retinas were then mounted onto microscope slides under coverslips with anti-fade mounting medium.
Microscopy. Retinal flatmounts were imaged using the Zeiss Axiolmager Z2 and the MosaiX feature of the AxioVision software as previously described (Geranurimi et al. 2019). Representative images after Iba-1 staining were taken using a laser scanning confocal microscope (Olympus IX81 with Fluoview FV1000 Scanhead) using the Fluoview Software at 30× magnification.
Quantification and Data Analysis. The FIJI software was used to quantify the area of vaso-obliteration in each retina, expressed as a percentage of the area of the whole retina. The number of Iba-1-positive cells was counted using the cell counter plug-in in the FIJI software, and the average of cell counts in 4 fields per retina was calculated. Data was analyzed using Prism 7 with one-way ANOVA and the Dunnett's test for multiple comparisons. Results were treated as significant when p was less than 0.05 and expressed as mean+SEM.

human thymocyte = details: in vitro (Jamieson et al. 2009); cited from earlier work

For “H-D-Arg-D-Tyr-D-Thr-D-Val-D-Glu-D-Leu-D-Ala-NH2 [compound 1, reference compound]”, the “effect on IL-1β-induced NF-κB signaling (secreted alkaline phosphatase)” value [1] is listed as “no effect”, the PTB rate (timed-pregnant CD-1 mice) is listed as ~20% and the “in vivo effects in models of hyperthermia and inflammatory bowel disease” value [2] is listed as “robust in vivo effects”. The “retinal microglial morphology/activation (Iba-1 staining)” value (Sprague Dawley rat pups) was “ramified and branched microglia”, the “extent of vaso-obliteration (percentage of total retinal area)” value (Sprague Dawley rat pups; vehicle ˜30%) was ~20% and the “IL-1β-induced human thymocyte cell proliferation” value (human thymocyte) was “blocked”.
